Data from publication PMC11184559, “Identification and Validation of Compounds Targeting Leishmania major Leucyl-Aminopeptidase M17” (ACS Infectious Diseases, 2024).
Values joined by “and” are separate entries in the source; they are usually repeats but may differ in a detail not shown here. Equal entries are not always repeated. Where two headings read alike, the source gives them in different places.

Experiments:
rLmLAP = rLmLAP (Leishmania major, UniProt Q7KF27); test: RapidFire-MS aminopeptidase activity assay: inhibition of rLmLAP (LSTVIVR substrate); type: biochemical; details: for IC50: RapidFire-MS, 5 nM enzyme, 10 μM LSTVIVR, 20 min preincubation, 0.195-100 μM, mean ± standard error (n = 3)
Sequence of rLmLAP (Q7KF27 entry or part of it): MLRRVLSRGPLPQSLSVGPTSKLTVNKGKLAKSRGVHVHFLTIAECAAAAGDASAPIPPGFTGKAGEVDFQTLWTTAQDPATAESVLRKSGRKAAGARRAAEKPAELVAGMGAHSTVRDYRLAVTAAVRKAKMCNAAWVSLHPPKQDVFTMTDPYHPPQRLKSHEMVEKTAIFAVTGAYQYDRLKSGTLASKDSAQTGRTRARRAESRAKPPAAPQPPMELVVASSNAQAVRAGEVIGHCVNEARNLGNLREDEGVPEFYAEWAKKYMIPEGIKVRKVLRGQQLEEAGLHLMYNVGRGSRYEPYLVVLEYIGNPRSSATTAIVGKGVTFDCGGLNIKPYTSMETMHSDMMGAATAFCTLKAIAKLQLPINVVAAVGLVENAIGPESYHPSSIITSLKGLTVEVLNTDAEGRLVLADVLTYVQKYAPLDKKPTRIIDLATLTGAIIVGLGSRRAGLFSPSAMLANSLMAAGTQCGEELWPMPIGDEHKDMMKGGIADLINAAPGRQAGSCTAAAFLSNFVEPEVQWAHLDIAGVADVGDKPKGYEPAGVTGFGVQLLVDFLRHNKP
Procedure: Assays were carried out as previously described,[24] with some differences indicated below. The reaction mix consisted of 0 nM (control) and 30 nM rLmLAP in 1× PBS, pH 7.0, 0.005% (v/v) NP-40, plus 7.5 μL of LSTVIVR substrate peptide in the same buffer. For product quantification, the peak areas of the LSTVIVR peptide were integrated with respect to the internal standard LSTVIVR* peptide. The C-terminal arginine was chosen because this amino acid is amenable to isotopic labeling.[45]
rLmLAP was assayed at 5 nM with 10 μM (1× appKM) of LSTVIVR substrate peptide. The enzyme was preincubated with bestatin or DMSO for 20 min. Bestatin was prepared at 10 concentrations in DMSO, covering the range from 0.39 to 100 μM. […] The remaining experimental conditions were maintained, as described above.
A high-throughput screen was conducted against rLmLAP using 3,383 compounds with known protease inhibitor motifs. The compounds were dispensed onto plates using an ECHO 550 acoustic dispenser (Labcyte, Sunnyvale, CA). The enzyme was assayed at 5 nM with 10 μM (1× appKM) LSTVIVR substrate for 60 min. Before adding the substrate, the enzyme was preincubated with 45 nL of the compounds or DMSO for 20 min. Compounds, dissolved in DMSO, were tested at 30 μM. […] No replicates were performed for each inhibitor in this experiment. The remaining experimental conditions were kept constant as described above. The ActivityBase program from IDBS provider (https://www.idbs.com) was used to process and analyze the data. Selection criteria for potential inhibitors in this screen required an inhibition percentage greater than the mean (calculated from the inhibition percentages of all the inhibitors) plus three standard deviations (SD). All compounds were purchased commercially and are >95% pure by HPLC.
To obtain IC50 data for screen-detected rLmLAP inhibitors at a single concentration, ten-point concentration–response curves were generated for selected inhibitors showing greater than mean ±3 SD inhibition. The curves were prepared in 384-well plates with a maximum concentration of 100 μM and 1:2 serial dilutions in DMSO (0.195–100 μM) using an ECHO 550 acoustic dispenser. All other experimental conditions were as described above for RapidFire-MS optimization. Three replicates of each concentration of inhibitor were evaluated. The IC50 value was calculated by nonlinear fitting of a four-parameter logistic function to the experimental data. Curve fitting and IC50 calculations were performed using IDBS ActivityBase XE version 9.2.0.106. Inhibitory activity was determined using the peak area ratio, calculated as the reaction product (STVIVR) divided by its internal standard (*LSTVIVR). The peak area ratio of the reaction without enzyme was defined as 100% inhibitory activity, and that of the complete reaction mixture was defined as 0% inhibitory activity. At least three replicates were generated for each hit compound.

rHsLAP = target: T1, rHsLAP (Homo sapiens, UniProt P28838); test: RapidFire-MS selectivity study against human LAP; type: biochemical; details: for IC50: 150 nM rHsLAP, 600 μM LSTVIVR, 1 mM ZnCl2, 180 min
T1 construct: purchased Assay Genie, Ireland
T1 sequence (P28838 whole entry): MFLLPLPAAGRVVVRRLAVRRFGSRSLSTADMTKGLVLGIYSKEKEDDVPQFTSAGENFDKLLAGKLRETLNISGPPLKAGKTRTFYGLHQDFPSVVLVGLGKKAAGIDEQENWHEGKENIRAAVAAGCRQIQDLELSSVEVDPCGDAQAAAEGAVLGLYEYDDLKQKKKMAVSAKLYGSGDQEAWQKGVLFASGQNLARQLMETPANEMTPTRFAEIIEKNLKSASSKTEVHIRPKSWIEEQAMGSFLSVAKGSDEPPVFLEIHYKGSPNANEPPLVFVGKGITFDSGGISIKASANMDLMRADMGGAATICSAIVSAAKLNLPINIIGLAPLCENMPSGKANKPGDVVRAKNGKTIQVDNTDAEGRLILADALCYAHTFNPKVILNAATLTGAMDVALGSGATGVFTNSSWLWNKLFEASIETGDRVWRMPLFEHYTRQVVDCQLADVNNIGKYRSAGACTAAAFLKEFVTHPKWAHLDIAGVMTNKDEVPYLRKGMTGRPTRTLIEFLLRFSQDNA
Procedure: The reaction mixture included 600 μM (1× appKM) LSTVIVR substrate peptide, 1 mM ZnCl2, and the reaction time was 180 min. The inhibitors were tested at concentrations ranging from 0.78 to 100 μM to determine inhibitory activity.

[1] = system: parental (WT) L. major promastigotes; test: Drug sensitivity assay (resazurin), parental L. major promastigotes; type: cell-based
Procedure: L. major promastigotes were cultured in HOMEM (Gibco) supplemented with 10% heat inactivated FBS at 28 °C.
L. major promastigotes were seeded in 96-well plates at 5 × 10^4/mL, exposed to 2-fold serial dilutions of test compounds, and incubated at 28 °C for 72 h. Resazurin was, then, added to each well to a final concentration of 50 μM, and fluorescence was measured after 2–3 h (excitation of 528 nm and emission of 590 nm). The EC50 was calculated by processing the collected data by GRAFIT (version 5.0.4, Erithacus Software) and fitting them to the following two-parameter equation: [drawing 6] 6 where [I] is the inhibitor concentration, and m is the slope. Experiments were performed on at least three independent biological replicates. Data are presented as the weighted mean ± standard deviation.

[2] = system: LmjF.11.0630 (metallo-peptidase, Clan MF, Family M17); test: Isothermal TPP (iTPP) thermal stabilization, LmjF.11.0630; type: binding, Leishmania major; details: L. major promastigote lysate, 47 °C, compound at 10× EC50 vs DMSO
Procedure: (§1) Cell lysates were obtained as detailed above. Isothermal TPP assays were performed as previously described[29] but here lysates were incubated at two temperatures: 28 and 47 °C. The first temperature (28 °C) acts as a control temperature at which the protein levels are not altered by the presence of the test compound. The second temperature (47 °C) is the Leishmania spp. median Tm (melting temperature or temperature 50%) according to our interim data. […] These samples were aliquoted and submitted to a temperature shock at the designated temperature for 3 min, then 3 min at room temperature, and finally 3 min on ice. The soluble part was isolated by ultracentrifugation (100,000g, 20 min, 4 °C).
(§2) All aspects of sample processing, TMT-labeling, fractionation by HPLC into 10 fractions, LC-MS/MS, and protein identification and quantitation were described previously.[28],[68] Proteins with less than three peptides and those with increased stability at 28 °C were disregarded.
Proteins were identified by searching the MS and MS/MS data for the peptides against L. major strain Friedlin (TriTryp version 61, tritrypdb.org) using MaxQuant (http://maxquant.org/, version 2.1.4.0). All proteomics data sets have been deposited to the ProteomeXchange Consortium via the PRIDE[69] partner repository with the identifier PXD00000. Data were analyzed with Perseus v 1.6.15.[70] The reporter intensities of each protein were extracted and normalized to the control temperature reporter intensity (28 °C), then these normalized values were used to calculate the log2 transformed fold-changes (FC) of […] samples. Proteins stabilized (log2 FC > 1 in both replicates) were selected as putative hits.

[3] = system: LmjF.23.0040 (peroxidoxin); test: Isothermal TPP (iTPP) thermal stabilization, LmjF.23.0040; type: binding, Leishmania major; details: L. major promastigote lysate, 47 °C, compound at 10× EC50 vs DMSO
Procedure: as §1, §2
Proteins were identified by searching the MS and MS/MS data for the peptides against L. major strain Friedlin (TriTryp version 61, tritrypdb.org) using MaxQuant (http://maxquant.org/, version 2.1.4.0). All proteomics data sets have been deposited to the ProteomeXchange Consortium via the PRIDE[69] partner repository with the identifier PXD00000. Data were analyzed with Perseus v 1.6.15.[70] […]

[4] = system: LmLAP-overexpressing L. major promastigotes; type: cell-based, Leishmania major; details: compound at EC50, 72 h, n = 70 cells per condition
Procedure: L. major promastigotes (WT and LmLAP OE) were grown in supplemented HOMEM media as described above, in T25 flasks. […] L. major WT cells were grown at control conditions. Briefly, cells were fixed directly in culture media with 3% (v/v) paraformaldehyde for 15 min at room temperature, washed three times with excess D-PBS, permeabilized with 0.2% Triton X-100 (v/v) in PBS for 5 min, and washed three times in excess PBS. Slides were mounted with mounting medium with DAPI (Vectashield Lab H-1000–10). Microscopy was carried out on a Zeiss microscope and images captured using software Zen Blue (Zeiss). Analysis of images and figure preparation were made in Omero.[71]

[5] = Leishmania major; value of the specific curve shown in Figure 4; read-out: EC50 (WT), representative curve

Row | SMILES | inhibition at 100 µM (rLmLAP) [%] | Experimental ΔΔG (rLmLAP; DDD00097924 relative to DDD00057570) [kJ/mol] | IC50 (rLmLAP) | inhibition at 100 µM (rHsLAP) [%] | IC50 (rHsLAP) [µM] | EC50 ([1]; Leishmania major; 72 h, resazurin; weighted mean ± SD (n = 5); read-out: EC50 (weighted mean), parental (WT) L. major promastigotes) [µM] | EC50 [1, 5] [µM] | Enrichment (log2) replica A, LmjF.11.0630 [2] [log2] | Enrichment (log2) replica B, LmjF.11.0630 [2] [log2] | Enrichment (log2) replica A, LmjF.23.0040 [3] [log2] | Enrichment (log2) replica B, LmjF.23.0040 [3] [log2] | Frequency of elongated 1K1N1F forms in LmLAP-overexpressing cells [4] [%] | EC50 ([1]; Leishmania major, 72 h, resazurin; weighted mean ± SD (n = 5); read-out: EC50 (weighted mean), parental (WT) L. major promastigotes) [µM]
1 | O=C(c1cccs1)N(CCCn1ccnc1)c1nc2ccccc2s1 [DDD00097924] | 75 | 5.44 | 30.9 µM and 31 µM | 62 | 98 | 3 ± 0.2 | 1.83 ± 0.2 | 2.19 | 1.99 | 1.31 | 1.21 | ~36 | –
2 | COc1ccc(Cc2c(N)nc(-c3ccccn3)nc2N)cc1 [DDD00057570] | 99 | – | 3.3 µM and 3 µM | 35 | > 100 | – | 1.1 ± 0.2 | 1.47 | 1.34 | – | – | ~36 | 1.8 ± 0.2
